From patent EP0086092A2, “Antifungal compositions” (priority 1982, dated 1983)
Values joined by “and” are separate entries in the source; they are usually repeats but may differ in a detail not shown here. Equal values may be shown once. Marks after values point to notes of the source that are not given here.

Tested on: Candida albicans B 311
Assay: disc diffusion, zone of inhibition on seeded agar plates
Assay type: cell-based
Settings: for Zone Size: Table I, glucose as carbon source, composition of 1 unit by weight aculeacin A + 5 units fatty acid; for Zone Size / Zone Size YNB agar: YNB agar; for Zone Size / Zone Size Sabouarud Agar / Zone Size YNB agar / Zone Size B 311: 16-18 h; for Zone Size / Zone Size B 311: 28-37°C; for Zone Size Sabouarud Agar / Zone Size YNB agar: Table II, 37°C; for Zone Size Sabouarud Agar: Sabouarud dextrose agar; for Zone Size YNB agar: lysine
Description: The antifungal activity of aculeacin A and the compositions of aculeacin A and fatty acids was measured by disc diffusion.
The effects of a number of fatty acids on the antifungal activity of aculeacin A were determined by utilizing seeded plates of Candida albicans B 311 in yeast nitrogen base (YNB) agar (Difco) with glucose as the carbon source. A composition containing one unit by weight of aculeacin A and 5 units of fatty acid or the sodium salt thereof was spotted on the seeded plates and the size of the zone of inhibition after 16-18 hours incubation at 28-37 °C was measured.
Additional fatty acids were tested to determine , if they increased the intrinsic activity of aculeacin A against C. albicans B 311 utilizing seeded plates of YNB agar (Difco) with lysine as the carbon source and seeded plates of Sabouarud dextrose agar (Difco). Compositions containg one µg of aculeacin A and various amounts of the fatty acid was spotted on the seeded plates and the size of the zone of inhibition after 16-18 hours incubation at 37 °C was measured.
The antifungal effects of compositions containing a single amount of oleic acid as the sodium salt while varying the amounts of aculeacin A were determined by utilizing seeded plates of Candida albicans B 311 in Sabouarud dextrose agar and measuring the zone of inhibition after 16-18 hours incubation at 28-37°C.
The antifungal effects of compositions containing a single amount of aculeacin A while varying the amounts. of oleic acid as the sodium salt were determined by utilizing seeded plates of Candida albicans strains B 311, BC 759 and B 3153A and measuring the zone of inhibition after 16-18 hours at 28-37°C. This test was also performed with linoleic acid and linolenic acid.
The seeded plates of Candida albicans strains B 311, BC 759, and B 3153A were prepared by inoculating 50 ml of trypticase soy broth (BBL) with one ml of the preserved frozen culture and incubating the inoculum at 37°C for 7 hours on a rotary shaker. Two milliliters of this culture were used to inoculate one liter of Sabouarud dextrose agar (Difco) at 50°C and 15 milliliters of the resultant medium poured into 150 mm petri-dishes.

[1] = aculeacin A 0 µg, fatty acid 250 µg alone
[2] = aculeacin A 0 µg, fatty acid 500 µg alone
[3] = aculeacin A 0 µg, fatty acid 1000 µg alone
[4] = composition of aculeacin A 1 µg + fatty acid 250 µg
[5] = composition of aculeacin A 1 µg + fatty acid 500 µg
[6] = composition of aculeacin A 1 µg + fatty acid 1000 µg
[7] = aculeacin A 0 µg, fatty acid 50 µg alone
[8] = aculeacin A 0 µg, fatty acid 100 µg alone
[9] = aculeacin A 0 µg, fatty acid 200 µg alone
[10] = composition of aculeacin A 1 µg + fatty acid 50 µg
[11] = composition of aculeacin A 1 µg + fatty acid 100 µg
[12] = composition of aculeacin A 1 µg + fatty acid 200 µg
[13] = Tables IV-b, IV-c, aculeacin A 0 µg, fatty acid 28.1 µg alone
[14] = Tables IV-b, IV-c, aculeacin A 0 µg, fatty acid 56.2 µg alone
[15] = Tables IV-b, IV-c, aculeacin A 0 µg, fatty acid 112.5 µg alone
[16] = Tables IV-b, IV-c, aculeacin A 0.625 µg + fatty acid 28.1 µg
[17] = Tables IV-b, IV-c, aculeacin A 0.625 µg + fatty acid 56.2 µg
[18] = Tables IV-b, IV-c, aculeacin A 0.625 µg + fatty acid 112.5 µg
[19] = aculeacin A 0 µg, fatty acid 2000 µg alone
[20] = composition of aculeacin A 1 µg + fatty acid 2000 µg

CCCCCCCC(=O)O [Caprylic Acid]
Zone Size: 16 mm

CCCCCCCCCC(=O)O [Decanoic Acid]
Zone Size: 17 mm

CCCCCCCCCCCCCC(=O)O [Myristic Acid]
Zone Size: 16 mm

CCCCCCCC/C=C/CCCCCCCC(=O)O [Eladic Acid]
Zone Size Sabouarud Agar [1]: 0 mm | Zone Size Sabouarud Agar [2]: 0 mm | Zone Size Sabouarud Agar [3]: 0 mm | Zone Size Sabouarud Agar [4]: 18 mm | Zone Size Sabouarud Agar [5]: 15 mm | Zone Size Sabouarud Agar [6]: 13 mm | Zone Size YNB agar [1]: 0 mm | Zone Size YNB agar [2]: 0 mm | Zone Size YNB agar [3]: 0 mm | Zone Size YNB agar [4]: 13 mm | Zone Size YNB agar [5]: 13 mm | Zone Size YNB agar [6]: 13 mm

CCCCCC/C=C\CCCCCCCC(=O)O [Palmitoleic Acid]
Zone Size: 26 mm

Homo-γ-Linoleic Acid
Zone Size Sabouarud Agar [7]: 0 mm | Zone Size Sabouarud Agar [8]: 0 mm | Zone Size Sabouarud Agar [9]: 0 mm | Zone Size Sabouarud Agar [10]: 15 mm | Zone Size Sabouarud Agar [11]: 15 mm | Zone Size Sabouarud Agar [12]: 15 mm | Zone Size YNB agar [7]: 0 mm | Zone Size YNB agar [8]: 0 mm | Zone Size YNB agar [9]: 0 mm | Zone Size YNB agar [10]: 15* mm | Zone Size YNB agar [11]: 15* mm | Zone Size YNB agar [12]: 17* mm

CCCCC/C=C\C/C=C\CCCCCCCC(=O)O [Linoleic Acid]
Zone Size: 23 mm | Zone Size B 311 (Table IV-b, aculeacin A 0 µg, fatty acid 225 µg alone): Trace | Zone Size B 311 (Table IV-b, aculeacin A 0.625 µg + fatty acid 225 µg): 19 mm | Zone Size B 311 [13]: 0 mm | Zone Size B 311 [14]: 0 mm | Zone Size B 311 [15]: 0 mm | Zone Size B 311 [16]: 22 mm | Zone Size B 311 [17]: 22 mm | Zone Size B 311 [18]: 21 mm

γ-Linoleic Acid
Zone Size Sabouarud Agar [2]: 0 mm | Zone Size Sabouarud Agar [3]: 0 mm | Zone Size Sabouarud Agar [19]: 0 mm | Zone Size Sabouarud Agar [5]: 20 mm | Zone Size Sabouarud Agar [6]: 24 mm | Zone Size Sabouarud Agar [20]: 25 mm | Zone Size YNB agar [2]: 0 mm | Zone Size YNB agar [3]: 0 mm | Zone Size YNB agar [19]: 0 mm | Zone Size YNB agar [5]: 14 mm | Zone Size YNB agar [6]: 15 mm | Zone Size YNB agar [20]: 22 mm | increase in the intrinsic activity of aculeacin A (composition of 2000 units by weight fatty acid to one unit aculeacin A, Table II test): surprising increase in the intrinsic activity of aculeacin A

CCCCCCCCCCCCCCCC(=O)O [Palmitic Acid]
Zone Size: 15 mm

CCCCCCCCCCCC(=O)O [Lauric Acid]
Zone Size: 22 mm

CCCCCCCCCCC(O)C(=O)O (stereo not drawn) [α-Hydroxy Lauric Acid]
Zone Size Sabouarud Agar [1]: Trace | Zone Size Sabouarud Agar [2]: 10 (hazy) mm | Zone Size Sabouarud Agar [3]: 10 (hazy) mm | Zone Size Sabouarud Agar [4]: 15 mm | Zone Size Sabouarud Agar [5]: 15 mm | Zone Size Sabouarud Agar [6]: 20 mm | Zone Size YNB agar [1]: Trace | Zone Size YNB agar [2]: Trace | Zone Size YNB agar [3]: Trace | Zone Size YNB agar [4]: 20 mm | Zone Size YNB agar [5]: 24 mm | Zone Size YNB agar [6]: 25 mm

CC/C=C\C/C=C\C/C=C\CCCCCCCC(=O)O [Linolenic Acid]
Zone Size: 22 mm | Zone Size B 311 [13]: 0 mm | Zone Size B 311 [14]: 0 mm | Zone Size B 311 [15]: 0 mm | Zone Size B 311 [16]: 20 mm | Zone Size B 311 [17]: 19 mm | Zone Size B 311 [18]: 19 mm

CCCCCCCC/C=C\CCCCCCCCCCCC(=O)O [Erucic Acid]
Zone Size Sabouarud Agar [1]: 0 mm | Zone Size Sabouarud Agar [2]: 0 mm | Zone Size Sabouarud Agar [3]: 0 mm | Zone Size Sabouarud Agar [5]: 17 mm | Zone Size Sabouarud Agar [6]: Trace | Zone Size YNB agar [1]: 0 mm | Zone Size YNB agar [2]: 0 mm | Zone Size YNB agar [3]: 0 mm | Zone Size YNB agar [5]: 15 mm and 17 mm | Zone Size YNB agar [6]: 15 mm

CCCCCC/C=C/CCCCCCCCCC(=O)O [Vaccinic Acid]
Zone Size Sabouarud Agar [2]: 0 mm | Zone Size Sabouarud Agar [3]: 0 mm | Zone Size Sabouarud Agar [19]: 0 mm | Zone Size Sabouarud Agar [5]: 25 mm | Zone Size Sabouarud Agar [6]: 25 mm | Zone Size Sabouarud Agar [20]: 26 mm | Zone Size YNB agar [2]: 0 mm | Zone Size YNB agar [3]: 0 mm | Zone Size YNB agar [19]: 0 mm | Zone Size YNB agar [5]: 17 mm | Zone Size YNB agar [6]: 17 mm | Zone Size YNB agar [20]: 17 mm
